Assay results reported in US8889615B2, “Methods for promoting epithelialization and healing of chronic wounds” (New York University, priority 2009, dated 2014).
Entries after “also recorded” stand apart in the source; their conditions may differ.

Key:
β-catenin = β-catenin nuclearization in primary human epidermal keratinocytes (immunostaining, β-catenin y142); format: cell-based; conditions: 0.1 μmol/L dexamethasone; 200 nM Calphostin C or 10 μM RU486
Description: Topical GC treatment of human skin cepsimens was performed by daily applica-tion of Cormax (Clobetasol Propionate Cream 0.05%; Oclassen Pharmaceuticals, Inc.) using a sterile Q-tip applicator. Samples were fixed in formalin and processed for paraffin embedding following by sectioning to obtain 5-μm-thick sections. Keratinocytes were grown on chamber slides to 70% confluency (Lab-Tek, Naperville, Ill.) and treated with 0.1 μmol/L dexamethasone (Sigma) and incubated in the presence or absence of 200 nM Calphostin C or 10 μM RU486. Cells were fixed in 70% methanol for 10 minutes and permeabilized with 0.1% Triton X-100 for 10 minutes. Human tissues were stained with β-catenin antibody β-catenin phosphorylated Ab (Tyr- 142) (AbCam) at 1:1500 dilution in 5% bovine serum albumin and visualized using a secondary fluorescein isothiocyanate anti-mouse IgG antibody 1:150 (Sigma). All sections were mounted with mounting media. All negative controls were prepared by substitution of the primary antibody with an irrelevant antibody. The sections were analyzed using a Carl Zeiss microscope (Carl Zeiss, Thornwood, N.Y.) and digital images were collected using Adobe TWAIN—32 program.

[1] = test system: LEF/TCF-mediated transcription; assay: SuperTopFlash Tcf/Lef luciferase reporter assay in primary human keratinocytes; format: cell-based; conditions: 24 hours; for dexamethasone-mediated induction of LEF/TCF-mediated transcription: Dexamethasone 1 μM with RU486 10 μM or Calphostine C 200 nM
Description: Primary human keratinocytes were plated into 6-well plates and grown to 70% confluence in defined serum-free keratinocyte medium supplemented with epidermal growth factor and bovine pituitary extract (keratinocyte-SFM, GIBCO). Prior to transfection cells were transferred to basal serum—free medium (GIBCO) for 6 h, and then transfected with Tcf/Lef transcriptional activation reporter construct SuperTopFlash (Masckauchán, Mol. Biol. Cell, 17(12):5163-5172 (2006)) containing Tcf responsive elements and renilla-luciferase construct. Transfections were performed in triplicates using 3 μg of reporter plasmid, 0.2 μg of renilla-luciferase plasmid with a FuGene 6 transfection reagent (Roche), following manufacturer's instructions for procedure. Cells were incubated at 37° C. for over night with transfection cocktail and than treated with Dexamethasone (1 μM), RU486 (10 μM) and Calphostine C (200 nM) for 24 hours. Cell lysates were prepared the next day and both firefly and renilla luciferase activities were evaluated using Dual-Luciferase Reporter Assay System (Promega, Madison, Wis.). Samples were read in a luminometer and values were normalized for transfection efficiency using renilla-luciferase activity.

c-myc = c-myc Western blot in HEK; format: cell-based, human; conditions: DEX 1 μM with Calphostine C or RU486 10 μM, 4 hours
Description: Extracts for immunoblotting were prepared from a subconfluent 100 mm plate of normal HEK treated with DEX (1 μM), Calphostine C and RU486 (10 μM) or an equal volume of ethanol vehicle 4 hours prior to lysis. Cells were placed on ice; washed twice with phosphate-buffer saline (PBS); and lysed in 0.5 ml of modified RIPA buffer containing 50 mM Hepes, pH 7.5, 150 mM NaCl, 1 mM EDTA, 1 mM EGTA, 1 mM NaF, 1% Triton X-100, 10% glycerol, and additional protease and phosphatase inhibitors (1 mM phenylmethylsulfonyl fluoride, 20 mM glycerophosphate, 8 mM sodium pyrophosphate, 1 μg/ml leupeptin, 1 μg/ml pepstatin A, and 1 μg/ml aprotinin (Roche, Indianapolis, Ind.)) through fine needle aspiration. Lysates were centrifuged at 13,000 rpm for 10 min at 4° C. The soluble supernatants were normalized for total protein concentration using the Bradford protein assay, and the samples were stored at −20° C. Cell extracts were boiled for 5 minutes in Leammli sample buffer, were separated by 10% SDS-PAGE and transferred to nitrocellulose membrane (VWR, Batavia, Ill.) on 100 V for 1 hour in Tris/glycine transfer buffer. […] Western blot quantification was done using Total Lab Program (Non-linear dynamics Inc., NC).

GSK3β = assay: Phospho-GSK3β (Ser 9) Western blot in keratinocytes; format: cell-based, human; conditions: DEX 1 μM with GO6979 400 μM, RU486 10 μM or U73122 10 μM
Description: Extracts for immunoblotting were prepared from a subconfluent 100 mm plate of normal HEK treated with DEX (1 μM), Calphostine C and RU486 (10 μM) or an equal volume of ethanol vehicle 4 hours prior to lysis. Cells were placed on ice; washed twice with phosphate-buffer saline (PBS); and lysed in 0.5 ml of modified RIPA buffer containing 50 mM Hepes, pH 7.5, 150 mM NaCl, 1 mM EDTA, 1 mM EGTA, 1 mM NaF, 1% Triton X-100, 10% glycerol, and additional protease and phosphatase inhibitors (1 mM phenylmethylsulfonyl fluoride, 20 mM glycerophosphate, 8 mM sodium pyrophosphate, 1 μg/ml leupeptin, 1 μg/ml pepstatin A, and 1 μg/ml aprotinin (Roche, Indianapolis, Ind.)) through fine needle aspiration. Lysates were centrifuged at 13,000 rpm for 10 min at 4° C. The soluble supernatants were normalized for total protein concentration using the Bradford protein assay, and the samples were stored at −20° C. Cell extracts were boiled for 5 minutes in Leammli sample buffer, were separated by 10% SDS-PAGE and transferred to nitrocellulose membrane (VWR, Batavia, Ill.) on 100 V for 1 hour in Tris/glycine transfer buffer. The membranes were blocked for 30 minutes in 5% bovine serum albumin in blocking solution (Tris-buffered saline (TBS, pH 7.4) at room temperature and then incubated in blocking solution with primary antibody at 4° C. overnight using 1:500 of serum for anti-c-myc antibody (Santa Cruz). The membranes were washed three times for 5 minutes with TBS and 0.1% Triton X-100 and twice with TBS and incubated for 1 hour at room temperature with horseradish peroxidase-conjugated secondary antibody (Santa Cruz, Calif.). Blots were then washed three times for 5 minutes with TBS and 0.1% Triton X-100 and developed using Super Signal West Pico Chemiluminescent substrate (Pierce, Rockford, Ill.) and exposed on x-ray film (Eastman Kodak Co. Bio Max MR-Film) according to the manufacturer's instructions. For loading control we used anti b-tubulin antibody (Santa Cruz, Santa Cruz, Calif.). Western blot quantification was done using Total Lab Program (Non-linear dynamics Inc., NC). […]

wounded human skin [2] = assay: Human skin wound model, topical treatment, epithelialization by planimetry; format: cell-based; conditions: topical DEX 1 μM + Calphostine C 200 μM, 6 days
Description: Wounds were created using 4-mm punch biopsies through the reticular dermis and incubated on the air-liquid interface, as previously described. Immediately upon wounding cells were treated topically with dexamethasone (DEX) (1 μM), Calphostine C (CC) (200 μM) and the combination, DEX+CC and maintained on the air-liquid interface for 6 days. All specimens were frozen in OCT compound (Tissue Tek, Reading; Calif.) for immunocytochemistry. Wounds were quantified by planimetry as described previously (Tomic-Canic, et al., Wound Repair Regen., 15(1):71-9 (2007)).

protein kinase C = conditions: cited from earlier work
protein kinase C (PKC) = conditions: rat brain; cited from earlier work
[3] = test system: Ca^2+-independent PKC d-, e-, and z-isozymes; conditions: even at micromolar levels; cited from earlier work
PLC = conditions: human platelets and neutrophils; read-out: IC50, agonist-induced PLC activation; cited from earlier work
[4] = test system: Primary human keratinocytes; assay: Keratinocyte migration, wound scratch assay; format: cell-based
Description: Primary human keratinocytes were grown to 80% confluency. Twenty-four hours before the experiment cells were transferred to basal KBM medium (Life Technologies, Inc., Grand Island, N.Y.). Before the scratch, cells were treated with 8 μg/ml mitomycin C (ICN, Irvine, Calif.) for 1 hour and washed with basal media. Scratches were performed as previously described (Lee, et al., J Mol. Biol., 345:1083-1097 (2005)). Cells were incubated with 20 μmol/L LiCl or 25 ng/ml of EGF for 24 and 48 hours, rephotographed, and cell migration was quantified as previously described (Lee, et al., J. Mol. Biol., 345:1083-1097 (2005); Zavadil. et al., EMBO J., 23:1155-1165 (2004)). Thirty measurements were taken for each experimental condition and distance coverage by cells moving into the scratch wound area was quantified. Three images were analyzed per condition, per time point, and averages and standard deviations were calculated.

wounded human skin [5] = assay: Human skin ex vivo wound model with LiCl; format: cell-based; conditions: 4 mm punch wound, air-liquid interface, 20 mmol/L LiCl, 4 days
From the text: Wounds were created using 4-mm punch biopsies through the reticular dermis and a rim of cells participating in wound healing was collected by re-punching around the initial wounded area. Each time point was collected in parallel with an unwounded skin specimen of the same donor. All specimens were collected and either stored in RNAlater (Ambion, Austin, Tex.) or frozen in OCT compound (Tissue Tek, Reading, Calif.) for immunocytochemistry. To activate β-catenin, wounded skin was maintained on the air-liquid interface in the presence or absence of 20 mmol/L LiCl (Shimm, et al., J. Biol. Chem., 278:19674-19681 (2003)). Wounds were quantified by planimetry as described previously (Stojadinovic, et al., Am. J. Pathol., 167(1):59-69 (2005)).

CC#C[C@]1(O)CC[C@H]2[C@@H]3CCC4=CC(=O)CCC4=C3[C@@H](c3ccc(N(C)C)cc3)C[C@@]21C [RU486, (11b,17b)-11-(4-(Dimethylamino)phenyl)-17-hydroxy-17-(1-propynyl)estra-4,9-dien-3-one]
GC-mediated nuclearization (activation) of β-catenin (β-catenin): blocked
dexamethasone-mediated induction of LEF/TCF-mediated transcription [1]: abolished
GCs-mediated c-myc activation (c-myc): blocked
dexamethasone-mediated phosphorylation of GSK3β (GSK3β): completely abolished; also recorded: block

COc1c(CC(C)OC(=O)Oc2ccc(O)cc2)c2c3c(CC(C)OC(=O)c4ccccc4)c(OC)c(=O)c4c(O)cc(OC)c(c5c(OC)cc(O)c(c1=O)c52)c43 (stereo not drawn) [Calphostin C]
GC-mediated nuclearization (activation) of β-catenin (β-catenin): blocked
dexamethasone-mediated induction of LEF/TCF-mediated transcription [1]: blocked
GCs-mediated c-myc activation (c-myc): blocked
dexamethasone-mediated inhibition of epithelialization (wounded human skin [2]): rescues
IC50 (protein kinase C): 50 nM

Cn1c2ccccc2c2c3c(c4c5ccccc5n(CCC#N)c4c21)CNC3=O [Go 6976, 12-(2-Cyanoethyl)-6,7,12,13-tetrahydro-13-methyl-5-oxo-5H-indolo(2,3-a)pyrrolo(3,4-c)-carbazole]
dexamethasone-mediated phosphorylation of GSK3β (GSK3β): block
IC50 (protein kinase C (PKC)): 7.9 nM
effect on kinase activity of Ca^2+-independent PKC d-, e-, and z-isozymes [3]: does not affect

COc1ccc2c(c1)CCC1C2CC[C@@]2(C)C1CC[C@@H]2NCCCCCCN1C(=O)C=CC1=O (stereo partly drawn) [U-73122]
dexamethasone-mediated phosphorylation of GSK3β (GSK3β): inhibits
IC50 (PLC): 1000 to 2100 nM

[Cl-].[Li+] [LiCl]
keratinocyte migration ([4]; 20 μmol/L LiCl or 25 ng/ml of EGF, 24 and 48 hours): inhibited
EGF-stimulated keratinocyte migration ([4]; LiCl with EGF): efficiently blocked
wound healing (planimetry, histology) (wounded human skin [5]): completely inhibited
LEF/TCF-mediated transcription (TopFlash activity) ([1]; agent alone, Dexamethasone 1 μM): increase activity
